Source: ChEMBL document CHEMBL6109117, “Synthesis of an RBM39 Degrader That Downregulates CEP192 and Induces Disorganized Spindle Structures” (J Med Chem, 2025)
Calls of active or inactive are those of the source. The rule behind the calls is not given here.

Assays:
HCT-116 [1] = test: Induction of RBM39 degradation in human HCT-116 cells at 1 uM incubated for 3 to 6 hrs by Western blot analysis; format: cell-based; settings: time 3-6 hrs
HCT-116 [2] = test: Effect on DCAF15 expression in human HCT-116 cells at 0.1 to 5 uM incubated for 24 hrs by Western blot analysis; format: functional, cell-based; settings: dose 0.1-5 µM
HCT-116 [3] = test: Induction of spliceosome function impairment in human HCT-116 cells assessed as fold increase in NCKAP1L RI transcript at 1 to 10 uM incubated for 12 hrs by qRT-PCR analysis relative to control; format: functional; settings: dose 1-10 µM
HCT-116 [4] = test: Antitumor activity against human HCT-116 cells xenografted in BALB/c nude mouse at 50 mg/kg, po bid treated for 17 days relative to control; format: functional; settings: HCT-116, 408 h, time 17 day, read-out: TGI
HCT-116 [5] = test: Antitumor activity against human HCT-116 cells xenografted in BALB/c nude mouse at 150 mg/kg, po qd treated for 17 days relative to control; format: functional; settings: HCT-116, 408 h, time 17 day, read-out: TGI
[6] = AUC (0 to t) in ICR mouse at 15 mg/kg, po; format: ADME, organism-based; settings: in vivo
HCT-116 [7] = test: Effect on RNA splicing in human HCT-116 cells assessed as CEP192 gene skipping exons at 2 uM incubated for 12 hrs by RNA-seq analysis; format: functional, cell-based
HCT-116 [8] = test: Effect on RNA splicing in human HCT-116 cells assessed as CEP192 gene retention of introns at 2 uM incubated for 12 hrs by RNA-seq analysis; format: functional, cell-based
HCT-116 [9] = test: Effect on RNA splicing in human HCT-116 cells assessed as CEP192 gene skipping exons incubated for 12 hrs by PCR analysis; format: functional, cell-based; settings: dose <= 10.0 µM
K562 [10] = test: Effect on RNA splicing in human K562 cells assessed as CEP192 gene skipping exons incubated for 12 hrs by PCR analysis; format: functional, cell-based; settings: dose 0.1-10 µM
K562 [11] = test: Effect on RNA splicing in human K562 cells assessed as CEP192 gene retention of introns incubated for 12 hrs by PCR analysis; format: functional, cell-based; settings: dose 0.1-10 µM
MV4-11 [12] = test: Effect on RNA splicing in human MV4-11 cells assessed as CEP192 gene skipping exons incubated for 12 hrs by PCR analysis; format: functional, cell-based; settings: dose 0.1-10 µM
MV4-11 [13] = test: Effect on RNA splicing in human MV4-11 cells assessed as CEP192 gene retention of introns incubated for 12 hrs by PCR analysis; format: functional, cell-based; settings: dose 0.1-10 µM
HL-60 [14] = test: Effect on RNA splicing in human HL-60 cells assessed as CEP192 gene skipping exons incubated for 12 hrs by PCR analysis; format: functional, cell-based; settings: dose 0.1-10 µM
Kasumi 1 [15] = test: Effect on RNA splicing in human Kasumi 1 cells assessed as CEP192 gene retention of introns incubated for 12 hrs by PCR analysis; format: functional, cell-based; settings: dose 0.1-10 µM
MOLM-13 [16] = test: Effect on RNA splicing in human MOLM-13 cells assessed as CEP192 gene skipping exons incubated for 12 hrs by PCR analysis; format: functional, cell-based; settings: dose 0.1-10 µM
MOLM-13 [17] = test: Effect on RNA splicing in human MOLM-13 cells assessed as CEP192 gene retention of introns incubated for 12 hrs by PCR analysis; format: functional, cell-based; settings: dose 0.1-10 µM
CEM/C1 [18] = test: Effect on RNA splicing in human CEM/C1 cells assessed as CEP192 gene skipping exons incubated for 12 hrs by PCR analysis; format: functional, cell-based; settings: dose 0.1-10 µM
CEM/C1 [19] = test: Effect on RNA splicing in human CEM/C1 cells assessed as CEP192 gene retention of introns incubated for 12 hrs by PCR analysis; format: functional, cell-based; settings: dose 0.1-10 µM
RS4-11 [20] = test: Effect on RNA splicing in human RS4;11 cells assessed as CEP192 gene skipping exons incubated for 12 hrs by PCR analysis; format: functional, cell-based; settings: dose 0.1-10 µM
[21] = Effect on RNA splicing in human K562 cells assessed as number of mutually exclusive exons at 2 uM incubated for 12 hrs by RNA-seq analysis; format: functional
[22] = Effect on RNA splicing in human K562 cells assessed as number of retention of introns at 2 uM incubated for 12 hrs by RNA-seq analysis; format: functional
[23] = Effect on RNA splicing in human K562 cells assessed as number of alternative 3' splice sites at 2 uM incubated for 12 hrs by RNA-seq analysis; format: functional
[24] = Effect on RNA splicing in human K562 cells assessed as number of alternative 5' splice sites at 2 uM incubated for 12 hrs by RNA-seq analysis; format: functional
[25] = Effect on RNA splicing in human K562 cells assessed as mutually exclusive exons at 2 uM incubated for 12 hrs by RNA-seq analysis relative to control; format: functional
[26] = Effect on RNA splicing in human K562 cells assessed as retention of introns at 2 uM incubated for 12 hrs by RNA-seq analysis relative to control; format: functional
[27] = Effect on RNA splicing in human K562 cells assessed as alternative 3' splice sites at 2 uM incubated for 12 hrs by RNA-seq analysis relative to control; format: functional
[28] = Effect on RNA splicing in human K562 cells assessed as alternative 5' splice sites at 2 uM incubated for 12 hrs by RNA-seq analysis relative to control; format: functional
K562 [29] = test: Antiproliferative activity against human K562 cells assessed as inhibition of cell growth incubated for 4 days by CCK8 assay; format: functional, cell-based; settings: time 4.0 day
Kasumi 1 [30] = test: Antiproliferative activity against human Kasumi 1 cells assessed as inhibition of cell growth incubated for 4 days by CCK8 assay; format: functional, cell-based; settings: time 4.0 day
MOLM-13 [31] = test: Antiproliferative activity against human MOLM-13 cells assessed as inhibition of cell growth incubated for 4 days by CCK8 assay; format: functional, cell-based; settings: time 4.0 day
RS4-11 [32] = test: Antiproliferative activity against human RS4;11 cells assessed as inhibition of cell growth incubated for 4 days by CCK8 assay; format: functional, cell-based; settings: time 4.0 day
HCT-116 [33] = test: Induction of cell cycle arrest in human HCT-116 cells assessed as accumulation at G2/M phase at 1 uM incubated for 24 hrs by PI staining based flow cytometry relative to control; format: functional
HCT-116 [34] = test: Induction of cell cycle arrest in human HCT-116 cells assessed as accumulation at G2/M phase at 1 uM incubated for 48 hrs by PI staining based flow cytometry relative to control; format: functional
HCT-116 [35] = test: Induction of cell cycle arrest in human HCT-116 cells assessed as accumulation at G2/M phase at 1 uM incubated for 72 hrs by PI staining based flow cytometry relative to control; format: functional
K562 [36] = test: Induction of RBM39 degradation in human K562 cells incubated for 24 hrs by Western blot analysis; format: cell-based; settings: dose 1-10 µM
MV4-11 [37] = test: Induction of RBM39 degradation in human MV4-11 cells incubated for 24 hrs by Western blot analysis; format: cell-based
HL-60 [38] = test: Induction of RBM39 degradation in human HL-60 cells incubated for 24 hrs by Western blot analysis; format: cell-based
MOLM-13 [39] = test: Induction of RBM39 degradation in human MOLM-13 cells incubated for 24 hrs by Western blot analysis; format: cell-based
HCT-116 [40] = test: Induction of spliceosome function impairment in human HCT-116 cells assessed as increase in CUL4A RI transcript at 1 to 10 uM incubated for 12 hrs by qRT-PCR analysis; format: functional, cell-based; settings: dose 1-10 µM
HCT-116 [41] = test: Induction of spliceosome function impairment in human HCT-116 cells assessed as decrease in ZNF207 exon8-exon9 RNA level at 1 to 10 uM incubated for 12 hrs by qRT-PCR analysis; format: functional, cell-based; settings: dose 1-10 µM

For `Cc1ccc(NS(=O)(=O)c2cccc(NC(=O)C(=O)N3CCC[C@@H]3CO)c2)c2[nH]cc(C#N)c12`, the Activity (HCT-116 [1]) was “Active; Compound Exhibited Its Efficiency Steadily Increasing From 3 To 48 Hrs”, the Activity (HCT-116 [2]) was “inactive” and the “fold change (FC)” value (HCT-116 [3]) was 3. For the same compound, the inhibition in vivo at 50 mg/kg (HCT-116 [4]) was 35%, the inhibition in vivo at 150 mg/kg (HCT-116 [5]) was 72% and the AUC(0-t) [6] was 3480 ng·h/mL. For the same compound, the Activity (HCT-116 [7]) was “Active; Observed Skipping Of Exons 42, 28 And 13”, the Activity (HCT-116 [8]) was “Active; Observed Retention Of Introns Between Exons 27 And 28” and the Activity (HCT-116 [9]) was “Dose-dependent-effect; Observed Skipping Of Exons 42, 28 And 13”. The Activity (K562 [10]) was “Dose-dependent-effect; Observed Skipping Of Exons 42, 28 And 13”, the Activity (K562 [11]) was “Dose-dependent-effect; Observed Retention Of Introns Between Exons 27 And 28” and the Activity (MV4-11 [12]) was “Dose-dependent-effect; Observed Skipping Of Exons 42, 28 And 13”. For the same compound, the Activity (MV4-11 [13]) was “Dose-dependent-effect; Observed Retention Of Introns Between Exons 27 And 28”, the Activity (HL-60 [14]) was “Dose-dependent-effect; Observed Skipping Of Exons 42, 28 And 13” and the Activity (Kasumi 1 [15]) was “Dose-dependent-effect; Observed Retention Of Introns Between Exons 27 And 28”. The Activity (MOLM-13 [16]) was “Dose-dependent-effect; Observed Skipping Of Exons 42, 28 And 13”, the Activity (MOLM-13 [17]) was “Dose-dependent-effect; Observed Retention Of Introns Between Exons 27 And 28” and the Activity (CEM/C1 [18]) was “Dose-dependent-effect; Observed Skipping Of Exons 42, 28 And 13”. The Activity (CEM/C1 [19]) was “Dose-dependent-effect; Observed Retention Of Introns Between Exons 27 And 28”, the Activity (RS4-11 [20]) was “Dose-dependent-effect; Observed Skipping Of Exons 42, 28 And 13” and the Activity [21] was 1801. For the same compound, the Activity [22] was 1454, the Activity [23] was 1232 and the Activity [24] was 633. The Activity [25] was 10.3%, the Activity [26] was 8.4% and the Activity [27] was 7.1%. The Activity [28] was 3.6%, the inhibition (K562 [29]) was “Active” and the inhibition (Kasumi 1 [30]) was “Active”. The inhibition (MOLM-13 [31]) was “Active”, the inhibition (RS4-11 [32]) was “Active” and the Activity (HCT-116 [33]) was 33%. For the same compound, the Activity (HCT-116 [34]) was 58%, the Activity (HCT-116 [35]) was 66% and the Activity (K562 [36]) was “Dose-dependent-effect”. For the same compound, the Activity (MV4-11 [37]) was “Dose-dependent-effect”, the Activity (HL-60 [38]) was “Dose-dependent-effect” and the Activity (MOLM-13 [39]) was “Dose-dependent-effect”.

With `NS(=O)(=O)c1ccc(S(=O)(=O)Nc2cccc3c(Cl)c[nH]c23)cc1` [INDISULAM] the Activity (HCT-116 [40]) was “Active” and the Activity (HCT-116 [41]) was “Active”.
